Results reported in patent publication US11207379B2, “Peptides with anti-cancer activity” (IDP DISCOVERY PHARMA, S.L., priority 2016, dated 2021).
Numbered stars: 1 amine (or outer) side, 2 acyl side, 3 side chain; on linkers, the order of the positions; unused ones are H or OH. Peptide text beside a SMILES is read from it. Suc = O=C(CCC(=O)[*:2])[*:1]

Tests used:
Format in all cases: cell-based
[1] = biological target: MM.1S, B Lymphoblast (multiple myeloma); assay: Viability assay (MTT, Alamar Blue, hexosaminidase), 72 h; conditions: MM.1S cells, read-out: EC50
Method: MM.1S, B Lymphoblast (multiple myeloma), ATCC: CRL-2974
(§1) Cell lines A549, MCF-7 and RAMOS were cultured in incubator under CO2 (6%) at 37° C. in DMEM high glucose (Dulbecco's Modified Eagle Solution, Gibco-BRL 31966-21) medium with 10% fetal bovine serum inactivated (FBS) (Gibco-BRL 10106-169). Cell lines HL-60 and MM.1S were cultured in incubator at 37° C. in RPMI-1640 (Sigma R8758) medium with 10% of fetal bovine serum inactivated (FBS) and 2 mM glutamine (Sigma G7513). Cell lines BJ were cultured in incubator under CO2 (6%) at 37° C. in Eagle's Minimum Essential Medium (Sigma, M-2279) with 10% fetal bovine serum inactivated (FBS) (Gibco-BRL 10106-169).
(§2) During the amplification step and the assays adherent cells were rinsed with DPBS (Dulbecco's Phosphate Buffered Saline, Sigma D1283) three times and afterward treated for 5 minutes with trypsin ([…]) (Gibco-BRL, 15400054) in solution of DPBS at 37° C., and, once detached, transferred in the culturing medium. No-adherent cells were centrifuged and transferred in the culturing medium. Cells were counted in a Neubauer chamber after labelling with Tripan-Blue.
(§3) A549, MCF-7 and JB cells were seeded at a density of 5000 cells/well and HL-60, MM.1S and Ramos at 10000 cells/well in 100 μl of medium in 96 well plates. After 24 h, the compounds to be tested were added to calculate the dose/response curve at the starting concentration of 100 μM with serial dilutions (1:1). Controls are the untreated cells. Each experiment was performed in triplicate.
(§4) Cells were incubated during 72 h in incubator under CO2 atmosphere at 37° C. Cell viability was measured by means of MTT (3-(4,5-dimethylthiazol-2-yl)-2.5-diphenyltetrazolium bromide) assay, Alamar Blue® (Biosource DAL1100) and Hexosaminidase activity test, consecutively, following manufacturer instructions.
(§5) MTT: 1. Stock solution of MTT (475989 Calbiochem) was 5 mg/ml in PBS 1×. As negative control (experiment noise) 3 wells were treated with 20 μl/well of a solution of SDS 10% in H2O. The same control was used for Alamar Blue/Hexosaminidase. 10 μl/well of MTT solution were added and the plate was incubated for 3-4 hr. The medium was discarded and 100 μl of extracting buffer (PBS 1×, 15% SDS, 50% […] N,N-Dimethylformamide, pH 4.7) were added to each well. Plates were incubated for 16 h at room temperature under orbital shaking. Absorbance at 570 nm was finally measured.
(§6) Alamar Blue: 10 μl Alamar Blue solution was added to each well and the plates were incubated for […] in the incubator. Fluorescence ratio at 535/590 (excitation/emission) was measured in Cytofluor (Millipore) fluorimeter. Blank control was determined by lysis of untreated cells with con 2% of Triton X100, right before adding Alamar Blue solution.
(§7) Hexosaminidase activity test: after Alamar Blue lecture, medium was discarded and plates were rinsed once with PBS. 60 μl hexosaminidase substrate (p-nitrophenol-N-acetyl-beta-D-glucosamide 7.5 mM [Sigma N-9376], sodium citrate 0.1 M, pH 5.0, 0.25% Triton X-100) was added to each well and the plates were incubated at 37° C. for 2-5 h, according to the cell type (hexosaminidase activity changes according to the cell type). […] Blank control was the same as described before.
(§8) Data analysis was performed calculating the percentage of cell viability normalized vs. the values of negative control, which was considered equal to 100%. The dose/response curve was fitted through the sigmoidal equation dose-response (variable slope) and the EC50 values were calculated as follow: Y=Bottom+(Top−Bottom)/(1+10^{[(Log EC50−X)*HillSlope]},

[2] = biological target: HL-60, promyeloblast (acute myelocytic leukemia, AML); assay: as above; conditions: HL-60 cells, read-out: EC50
Method: HL-60, promyeloblast (acute myelocytic leukemia, AML), ECACC: 98070106
as §1, §2, §3, §4, §5, §6, §7, §8

[3] = biological target: A549, epithelial (lung cancer); assay: as above; conditions: A549 cells, read-out: EC50
Method: A549, epithelial (lung cancer), ATCC:CCL-185
as §1, §2, §3, §4, §5, §6, §7, §8

[4] = biological target: RAMOS, B lymphocyte (Burkitt's Lymphoma); assay: as above; conditions: Ramos cells, read-out: EC50
Method: RAMOS, B lymphocyte (Burkitt's Lymphoma), ATCC: CRL-1596
as §1, §2, §3, §4, §5, §6, §7, §8

[5] = biological target: MCF-7, epithelial (breast cancer); assay: as above; conditions: MCF7 cells, read-out: EC50
Method: MCF-7, epithelial (breast cancer), ECACC: 86012803
as §1, §2, §3, §4, §5, §6, §7, §8

[6] = test system: JB healthy cells (BJ, fibroblast, normal skin); assay: as above
Method: BJ, fibroblast (normal skin), ATCC® CRL-2522™
as §1
as §2, with “No-adherent cells were centrifuged and transferred in the culturing medium.” left out, “Tripan-Blue. […]” for “Tripan-Blue.”
as §4, with “instructions. […]” for “instructions.”

HL-60 cells = assay: Annexin V assay by flow cytometry; conditions: for Percentage of HL-60 gated cells (positive to Annexin V): compound at EC30, control = 100%
Method: (§9) Miltenyi Biotec Annexin V-FITC Kit was used. To detect apoptosis in early stage Phosphatidylserine in plasmatic membrane localization was measured, though the calcium dependent reaction with Annexine V. Annexin V molecules were labelled with different fluorophores (FITC) and analyzed by FACS. To detect apoptosis in late stage DNA-intercalating agents, such Propidium iodide (PI) were used.
(§10) Cells were seeded at a density range of 150000-30000 cells/well in 12 wells plates, and incubated at 37° C. in the incubator under CO2 atmosphere. After 24 h, treatments at 4 h, 8 h, 18 h, 48 h and 72 h were performed in cell lines A549, HL-60 and MM.1S, at IC30 and/or IC80, with compounds IDP-S09 and IL-09, in cell lines HL-60 and MM.1S with compound IDP-S04 and in cell line A549 with compounds IDP-S02 and IDP-S03. Staurosporine and compound 100258-F4 (Sigma) were used as positive control and reference compound, respectively.

MM.1S cells = assay: Annexin V assay by flow cytometry
Method: as §9, §10

A549 cells = assay: Annexin V assay by flow cytometry
Method: as §9
as §10, with “treatments at 4 h, 8 h, 18 h, 48 h and 72 h were performed in cell lines” left out

[7] = 4 h, compound at EC30, control = 100%
[8] = 4 h, compound at EC80, control = 100%

SMILES: CC[C@H](C)[C@H](NC(=O)[C@H](Cc1ccc(O)cc1)NC(=O)[C@H](C)NC(=O)[C@H](CC(C)C)NC(=O)[C@H](C)NC(=O)[C@H](CCCCN)NC(=O)[C@H](CCCCN)NC(=O)[C@H](Cc1ccccc1)NC(=O)[C@@H](NC(=O)[C@@H](NC(=O)[C@@H](NC(=O)[C@H](CCCCN)NC(=O)[C@@H]1CCCN1C(=O)[C@H](C)NC(=O)[C@H](CCCNC(=N)N)NC(=O)[C@H](CCCNC(=N)N)NC(=O)[C@H](CCCNC(=N)N)NC(=O)[C@H](CCCNC(=N)N)NC(=O)[C@H](CCCNC(=N)N)NC(=O)[C@H](CCCNC(=N)N)NC(=O)[C@H](CCCNC(=N)N)NC(=O)CCC(=O)O)[C@@H](C)CC)C(C)C)[C@@H](C)CC)C(N)=O [IDP-L09] (Suc-RRRRRRRAPKIVIFKKALAYI-NH2)
- EC50 [1]: 25 ± 1 µM
- EC50 [2]: 46 ± 6 µM
- EC50 [3]: 48 ± 5 µM
- EC50 [4]: 28 ± 1 µM
- EC50 [5]: ~28 µM
- EC50 [6]: > 100 µM
- Percentage of HL-60 gated cells (positive to Annexin V) (HL-60 cells; 48 h): 590%
- Percentage of HL-60 gated cells (positive to Annexin V) (HL-60 cells; 72 h): 230%
- apoptosis induction (Annexin V by FACS), in words (HL-60 cells; HL-60 cells): apoptosis induction is significant after 48 h and 72 h at low concentrations (IC30)
- Percentage of MM.1S gated cells (positive to Annexin V) (MM.1S cells; [7]): 50%
- Percentage of MM.1S gated cells (positive to Annexin V) (MM.1S cells; [8]): 50%
- Percentage of MM.1S gated cells (positive to Annexin V) (MM.1S cells; 8 h, compound at EC30, control = 100%): 220%
- Percentage of MM.1S gated cells (positive to Annexin V) (MM.1S cells; 8 h, compound at EC80, control = 100%): 310%
- Percentage of MM.1S gated cells (positive to Annexin V) (MM.1S cells; 48 h, compound at EC30, control = 100%): 190%
- Percentage of MM.1S gated cells (positive to Annexin V) (MM.1S cells; 72 h, compound at EC30, control = 100%): 500%
- apoptosis induction (Annexin V by FACS), in words (MM.1S cells; MM.1S cells): induces apoptosis at 8 h, 48 h and 72 h at low concentration (IC30) and at 8 h at high concentration (IC80)
- Percentage of A549 gated cells (positive to Annexin V) (A549 cells; [7]): 900%
- Percentage of A549 gated cells (positive to Annexin V) (A549 cells; [8]): 2400%
- Percentage of A549 gated cells (positive to Annexin V) (A549 cells; 16 h, compound at EC30, control = 100%): 400%
- Percentage of A549 gated cells (positive to Annexin V) (A549 cells; 16 h, compound at EC80, control = 100%): 950%
- apoptosis induction (Annexin V by FACS), in words (A549 cells; A549 cells): fast induction (4 h) is observed
